Reference: patent US20230248037A1, “FLAVOUR ADDITIVES” (MARS, INCORPORATED, priority 2012, published 2023)

Key:
cats = assay: 2-bottle choice difference test of tastant solutions in water, intake by cats; design: species or system cat; conditions: amino acids of the second group
Method: Cats were allowed access to water containing either 25 mM proline+25 mM histidine with a composition comprising 50 mM histidine. The methodology used a 2-bottle choice test with 24 cats (the final number of cats for each test can vary due to data being discarded by spillage, etc.). Cats were housed individually during trial periods and had free access to water available between testing periods. The test involved a choice test between the tastant/mixture at a given concentration dissolved in deionised water versus deionised water only or another tastant/mixture. Control was made for positional bias (e.g. A/B exposure 1 and B/A exposure 2) and evaporation loss. The testing time was 36 hours (i.e. 18 hours per day, allowing a two-day crossover). Following two consecutive days of each testing, cats had two consecutive days of rest. Cats were offered a dry diet as a single meal at the start of the test period for one hour, calculated to meet the individual requirements for each cat.

[1] = tested on: T1R1/T1R3 receptor (umami receptor); assay: In vitro screening for binding and activation of the umami receptor; type: cell-based, cat; conditions: for binding to and activation of the umami receptor: in silico modelling and in vitro assays using a non-human umami receptor, screening in the presence of 0.2 mM IMP
Method: In vitro screening was carried out in order to establish which first amino acids bind and activate the umami receptor.
In vitro screening was carried out in order to establish which second amino acids bind and activate the umami receptor.

Structure (SMILES) | acceptance (flavour effect) in in vivo tests (cats) | binding to and activation of the umami receptor [1] | binding to the feline umami receptor [1]
NCCCC[C@H](N)C(=O)O [lysine] | positive acceptance | – | –
NC(=O)CC[C@H](N)C(=O)O [glutamine] | positive acceptance | – | –
N[C@@H](Cc1ccc(O)cc1)C(=O)O [tyrosine] | – | able to bind to and activate the umami receptor to different extents | –
N[C@@H](Cc1c[nH]cn1)C(=O)O [histidine] | – | able to bind to and activate the umami receptor to different extents | –
C[C@@H](O)[C@H](N)C(=O)O [threonine] | positive acceptance | – | –
CC(C)[C@H](N)C(=O)O [valine] | positive acceptance | – | –
NCCC[C@H](N)C(=O)O [ornithine] | positive acceptance | – | –
CC[C@H](C)[C@H](N)C(=O)O [isoleucine] | positive acceptance | – | –
N[C@@H](Cc1c[nH]c2ccccc12)C(=O)O [tryptophan] | – | able to bind to and activate the umami receptor to different extents | –
NC(=O)C[C@H](N)C(=O)O [asparagine] | – | able to bind to and activate the umami receptor to different extents | –
CSCC[C@H](N)C(=O)O [methionine] | – | able to bind to and activate the umami receptor to different extents | –
N[C@@H](Cc1ccccc1)C(=O)O [phenylalanine] | – | able to bind to and activate the umami receptor to different extents | –
CC(C)C[C@H](N)C(=O)O [leucine] | – | able to bind to and activate the umami receptor to different extents | –
N[C@@H](CS)C(=O)O [cysteine] | – | able to bind to and activate the umami receptor to different extents | –
O=C(O)[C@@H]1CCCN1 [proline] | positive acceptance | – | –
N[C@@H](CO)C(=O)O [serine] | – | able to bind to and activate the umami receptor to different extents | –
C[C@H](N)C(=O)O [alanine] | – | able to bind to and activate the umami receptor to different extents | –
NCC(=O)O [glycine] | – | able to bind to and activate the umami receptor to different extents | –
N[C@@H](CC(=O)O)C(=O)O [aspartic acid] | positive acceptance | – | does not bind
N[C@@H](CCC(=O)O)C(=O)O [glutamic acid] | positive acceptance | – | does not bind
O=C(O)[C@@H]1C[C@@H](O)CN1 [hydroxyproline] | positive acceptance | – | –
N[C@@H](CSSC[C@H](N)C(=O)O)C(=O)O [cystine] | positive acceptance | – | –
